Structures are written as SMILES.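 Results reflect a 48-hour exposure of cells in 96-well plates to compound at five concentrations. GI50: concentration for 50% inhibition of growth.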 Calls of active or inactive are those of the source. No stated cut-off is given here; in the data, active = GI50 up to about 1.1 µM and inactive = higher. Where only a bound is given, the exact number is not on record here.

Among the test systems are SF-295; HCT-15; OVCAR-4; HOP-62; PC-3; EKVX; SK-OV-3; Malme-3M; DU-145; M14; BT-549; NCI/ADR-RES; SF-268; RXF 393; T47D; OVCAR-5; 786-0; A498; OVCAR-3; SF-539.
Common to all, as to assay: inhibition of tumour cell growth, NCI panel, 48 h

Turning to `N=C1OC(CN2CCN(c3ccccc3)CC2)CN1C(=O)Nc1ccccc1` (stereo not given), the GI50 in the experiment on SF-295 was > 100 µM (inactive); in the experiment on HCT-15, greater than 100 µM; in the experiment on OVCAR-4 it was > 100 µM (inactive); in the experiment with HOP-62 it was > 100 µM (inactive); in the experiment on PC-3, > 100 µM (inactive); in the experiment with EKVX, > 100 µM (inactive). Moreover, the GI50 with SK-OV-3, in the experiment on Malme-3M, in the experiment with DU-145, with M14, with BT-549 and in the experiment on NCI/ADR-RES was > 100 µM (inactive) throughout. In addition, the GI50 with SF-268, with RXF 393, in the experiment on T47D, in the experiment with OVCAR-5, in the experiment on 786-0 and in the experiment on A498 was > 100 µM (inactive) throughout.

Consider `CC[N+]1(C)CCC(O)(/C=C/c2ccc(Cl)c(Cl)c2)C(C(=O)/C=C/c2ccc(Cl)c(Cl)c2)C1` (stereo not given), for which the GI50 in the experiment on SF-295 was 4.14 µM (inactive); with HCT-15 it was 2.17 µM; with OVCAR-3, 3.09 µM (inactive); with HOP-62 it was 2.49 µM (inactive); with PC-3, 2.18 µM (inactive); with EKVX, 11.1 µM (inactive). Also, the GI50 was 3.41 µM (inactive) in the experiment with SK-OV-3; 1.62 µM (inactive) with Malme-3M; 2.71 µM (inactive) in the experiment with DU-145; 3.03 µM (inactive) in the experiment with SF-539; 2.96 µM (inactive) in the experiment on BT-549; 2.51 µM (inactive) in the experiment on NCI/ADR-RES. Also, the GI50 with SF-268 was 2.67 µM (inactive); with RXF 393 it was 2.04 µM (inactive); with T47D it was 1.8 µM (inactive); in the experiment with OVCAR-5, 2.62 µM (inactive); in the experiment with 786-0, 1.81 µM (inactive); in the experiment with A498, 2.52 µM (inactive).

For the compound `FC(F)=C(c1ccc(-c2ccc(Cl)cc2)cc1)C(F)(F)F`, the GI50 in the experiment on SF-295 is 22.5 µM (inactive); in the experiment on HCT-15, 20.4 µM; in the experiment with OVCAR-4, 18.5 µM (inactive); with PC-3, 17.3 µM (inactive); in the experiment on EKVX, 19.7 µM (inactive); with SK-OV-3 it was 21 µM (inactive). Also, the GI50 is 17.2 µM (inactive) in the experiment on Malme-3M; 18.7 µM (inactive) in the experiment with DU-145; 19.7 µM (inactive) in the experiment on M14; 20.7 µM (inactive) in the experiment with SF-539; 18.2 µM (inactive) in the experiment on BT-549; 26.1 µM (inactive) with NCI/ADR-RES. Besides, the GI50 in the experiment with SF-268 was 23.9 µM (inactive); in the experiment with RXF 393, 20.6 µM (inactive); with T47D, 28.2 µM (inactive); with OVCAR-5 it was 17.5 µM (inactive); in the experiment on 786-0 it was 19.8 µM (inactive); with A498, 16.8 µM (inactive).

For `C/C=C(/COC(C)=O)C(=O)OC1C=C(C=O)C(C)(C)C=C1C` (stereo not given), the GI50 in the experiment on SF-295 was > 100 µM (inactive); with HCT-15 it was greater than 100 µM; in the experiment with OVCAR-4, > 100 µM (inactive); in the experiment on PC-3, > 100 µM (inactive); with EKVX, > 100 µM (inactive); in the experiment on SK-OV-3, > 100 µM (inactive). The GI50 with Malme-3M, in the experiment on DU-145, in the experiment on M14, in the experiment with SF-539, in the experiment with BT-549 and in the experiment with NCI/ADR-RES was > 100 µM (inactive) in each case. In addition, the GI50 in the experiment on SF-268, in the experiment on T47D, with OVCAR-5, with 786-0 and with A498 was > 100 µM (inactive) throughout.

In the case of `CN(C)c1ccc(/C=C(\NC(=O)c2ccccc2)C(=O)Nc2ccccc2C(=O)NN2C(=O)CSC2c2ccc(N(C)C)cc2)cc1` (stereo not given), the GI50 with SF-295 was > 100 µM (inactive); in the experiment on HCT-15, 92.7 µM; in the experiment on OVCAR-3, > 100 µM (inactive); with HOP-62, 93.1 µM (inactive); with PC-3, > 100 µM (inactive); in the experiment on EKVX, > 100 µM (inactive). Besides, the GI50 with SK-OV-3 is > 100 µM (inactive); with Malme-3M, > 100 µM (inactive); in the experiment with DU-145, > 100 µM (inactive); in the experiment with M14, > 100 µM (inactive); in the experiment with SF-539, 79.8 µM (inactive); with BT-549, > 100 µM (inactive). Moreover, the GI50 in the experiment on NCI/ADR-RES was > 100 µM (inactive); in the experiment on SF-268, > 100 µM (inactive); with RXF 393 it was 86.3 µM (inactive); with T47D, > 100 µM (inactive); in the experiment on OVCAR-5, > 100 µM (inactive); in the experiment with 786-0, 80.2 µM (inactive). The GI50 with A498 is > 100 µM (inactive).

Take `CCC(C)C(=O)OC1CC2(C)C(c3ccoc3)OC(=O)CC23OC2(C)OC34C(OC(=O)C(C)C)C3(O)C(OC(=O)C5(C)OC5C)C5(C)CC3(O)C(C)(C5CC(=O)OC)C14O2` (stereo not given): the GI50 in the experiment with SF-295 is 41.1 µM (inactive); in the experiment on HCT-15 it was 40.6 µM; with OVCAR-4, 38.4 µM (inactive); with PC-3, 31.8 µM (inactive); in the experiment on EKVX, 24.3 µM (inactive); in the experiment on SK-OV-3 it was > 100 µM (inactive). Moreover, the GI50 in the experiment with Malme-3M was > 100 µM (inactive); with DU-145, 68.2 µM (inactive); with M14 it was 42.9 µM (inactive); in the experiment on SF-539 it was 15 µM (inactive); in the experiment on BT-549, 60.7 µM (inactive); in the experiment with NCI/ADR-RES it was 21.7 µM (inactive). The GI50 in the experiment with SF-268 was 47.2 µM (inactive); with T47D it was 23.1 µM (inactive); with OVCAR-5 it was 91.2 µM (inactive); in the experiment on 786-0 it was > 100 µM (inactive); with A498, 75.5 µM (inactive).

With `C[C@@H]1CC(=O)[C@@]2(C)[C@](O)(CCC3O[C@]32C)[C@@]12CC(c1ccoc1)OC2=O` (stereo not given in full), the GI50 in the experiment on SF-295 is > 100 µM (inactive); with HCT-15, 37.8 µM; in the experiment with OVCAR-4, > 100 µM (inactive); in the experiment with OVCAR-3 it was > 100 µM (inactive); in the experiment with PC-3, > 100 µM (inactive); in the experiment on EKVX it was > 100 µM (inactive). Moreover, the GI50 in the experiment on SK-OV-3 was > 100 µM (inactive); in the experiment with Malme-3M, 50.7 µM (inactive); in the experiment on DU-145 it was > 100 µM (inactive); with M14, 72.4 µM (inactive); with SF-539 it was > 100 µM (inactive); with BT-549, 68.2 µM (inactive). Further, the GI50 is 46.2 µM (inactive) with NCI/ADR-RES; 31.8 µM (inactive) with RXF 393; > 100 µM (inactive) with T47D; > 100 µM (inactive) in the experiment with OVCAR-5; 75.7 µM (inactive) in the experiment with 786-0; 94.4 µM (inactive) in the experiment with A498.

`Cc1cn(CCCCCOC(=O)NC(CCCNC(=N)N)C(=O)O)c(=O)[nH]c1=O` (stereo not given): the GI50 with SF-295 is 28.2 µM (inactive); in the experiment on HCT-15 it was 28.1 µM; in the experiment on OVCAR-4, > 100 µM (inactive); in the experiment with OVCAR-3, 50.9 µM (inactive); with HOP-62, > 100 µM (inactive); in the experiment with PC-3, 40.8 µM (inactive). The GI50 with EKVX is 40.3 µM (inactive); in the experiment with SK-OV-3 it was 48.9 µM (inactive); with DU-145 it was 37.5 µM (inactive); with M14, 55.6 µM (inactive); in the experiment with SF-539, 45.7 µM (inactive); in the experiment with BT-549, > 100 µM (inactive). Besides, the GI50 was 23.1 µM (inactive) with NCI/ADR-RES; > 100 µM (inactive) in the experiment on SF-268; 33.3 µM (inactive) in the experiment with RXF 393; > 100 µM (inactive) in the experiment on T47D; > 100 µM (inactive) in the experiment with OVCAR-5; 39.4 µM (inactive) in the experiment with 786-0. Further, in the experiment on A498, the GI50 was 24.9 µM (inactive).

As for `O=C1c2ccccc2-c2ccc(/N=N/c3c(O)ccc4ccccc34)cc21`, the GI50 was > 100 µM (inactive) in the experiment on SF-295; greater than 100 µM in the experiment on HCT-15; > 100 µM (inactive) with OVCAR-4; > 100 µM (inactive) in the experiment with OVCAR-3; > 100 µM (inactive) in the experiment on HOP-62; > 100 µM (inactive) with PC-3. Besides, the GI50 with EKVX is > 100 µM (inactive); with SK-OV-3, > 100 µM (inactive); in the experiment with Malme-3M, 19.7 µM (inactive); in the experiment with DU-145, > 100 µM (inactive); with M14, > 100 µM (inactive); with BT-549, > 100 µM (inactive). Further, the GI50 in the experiment on NCI/ADR-RES, with SF-268, in the experiment on RXF 393, in the experiment with T47D, in the experiment on OVCAR-5 and in the experiment on 786-0 was > 100 µM (inactive) each time. Also, the GI50 with A498 was > 100 µM (inactive).

With `CC(C)(C)OC(=O)NCCCCC1NC(=O)[C@@H]2Cc3c([nH]c4ccccc34)C(C3CCCCC3)N2C1=O` (stereo not given in full), the GI50 was 19.8 µM (inactive) with SF-295; 36 µM in the experiment on HCT-15; 35.8 µM (inactive) in the experiment on OVCAR-4; 10.6 µM (inactive) in the experiment on OVCAR-3; 41.4 µM (inactive) in the experiment with HOP-62; 18.3 µM (inactive) in the experiment with PC-3. Besides, the GI50 with EKVX was 33.7 µM (inactive); with SK-OV-3, 53.7 µM (inactive); with Malme-3M it was > 100 µM (inactive); with DU-145, 54.8 µM (inactive); in the experiment on M14, 22.9 µM (inactive); with BT-549, 47.6 µM (inactive). In addition, the GI50 was 57.9 µM (inactive) with NCI/ADR-RES; 54.1 µM (inactive) in the experiment with SF-268; 4.23 µM (inactive) with RXF 393; 12.9 µM (inactive) in the experiment with T47D; > 100 µM (inactive) in the experiment on OVCAR-5; 27 µM (inactive) with 786-0. The GI50 in the experiment on A498 was > 100 µM (inactive).

Consider `COc1ccc(C2(CC(C)C)CCNC2)cc1OC` (stereo not given), for which the GI50 is > 100 µM (inactive) in the experiment on SF-295; greater than 100 µM in the experiment on HCT-15; > 100 µM (inactive) with OVCAR-4; 82.2 µM (inactive) with HOP-62; > 100 µM (inactive) in the experiment with PC-3; 86.1 µM (inactive) with EKVX. Moreover, the GI50 in the experiment with SK-OV-3, in the experiment on Malme-3M, in the experiment on DU-145, in the experiment on M14, in the experiment with BT-549 and with NCI/ADR-RES was > 100 µM (inactive) throughout. For the same compound, the GI50 in the experiment with SF-268 is 78.7 µM (inactive); with RXF 393, 41.9 µM (inactive); in the experiment on T47D, 31.5 µM (inactive); in the experiment on OVCAR-5 it was > 100 µM (inactive); in the experiment on 786-0 it was > 100 µM (inactive); with A498, > 100 µM (inactive).

The record behind these values is ChEMBL document CHEMBL1201862, “PubChem BioAssay data set” (2004).
